In patent US11352365B2, “Biased potent opioid-like agonists as improved medications to treat chronic and acute pain and methods of using the same” (THE UNITED STATES OF AMERICA, AS REPRESENTED BY THE …, priority 2018, dated 2022):
Where two headings read alike, the source gives them in different places.

Legend:
δ opioid receptor = biological target: T1, δ opioid receptor (Rattus norvegicus, UniProt P33533); assay: Binding assay, 3H DADLE, rat tissue; conditions: 100 nM concentration
T1 construct: from tissue; host or cells: rat tissue (per the earlier reading)

κ opioid receptor = biological target: T2, κ opioid receptor (Rattus norvegicus, UniProt P34975); assay: Binding assay, 3H U69,593, rat tissue
T2 construct: from tissue; host or cells: rat tissue (per the earlier reading)

μ opioid receptor = μ opioid receptor (Rattus norvegicus, UniProt P33535); conditions: read-out: 3H DAMGO μ Ki ± SEM; rat tissue, triplicate
MOR [1] = biological target: T3, MOR (Homo sapiens, UniProt P35372); assay: cell-based; format: cell-based; parameters: host or cells: U2OS-β-arrestin2-EFC-hMOR
Description: The PathHunter β-arrestin assay. The assay was performed according to the manufacturer's protocol (DiscoveRx) and as described previously. Briefly, 5000 U2OS-β-arrestin2-EFC-hMOR cells were plated in 384-well white plates with Opti-MEM media (Invitrogen) containing 1% FBS±pertussis toxin (100 ng/ml) overnight. The next day, cells were treated with compounds for 90 min at 37° C., followed by a 1-hour incubation of detection reagent at room temperature. Luminescence values were determined by using a Synergy HT luminometer (BioTek).

MOR [2] = biological target: T3, MOR; assay: cell-based; format: cell-based; parameters: expressed in transfected cells; host or cells: CHO-hMOR (membrane variant); SH-SY5Y-hMOR also named
Description: Four thousand cells per well were split into 384-well low-volume plate (VWR) with Opti-MEM (Invitrogen) supplemented with 1% FBS for 3 hours at 37° C. except SH-SY5Y-hMOR cells, which were plated for 1 hour at 37° C. Cells were then treated with drugs, […] forskolin for 30 min at room temperature.
Cells were then homogenized by a Dounce homogenizer 15 times in an ice-cold buffer [50 mM Hepes (pH 7.4)], followed by centrifugation at 500 g at 4° C. for 5 min. The supernatant was transferred to a 1.5-ml tube on ice, and the pellet was resuspended, homogenized, and centrifuged at 500 g at 4° C. for 5 min. Then, the supernatant was combined and spun at 20,000 g at 4° C. for 10 min. The membrane pellet was resuspended in an ice-cold buffer [50 mM Hepes (pH 7.4)] at concentrations of […]. Membranes were stored at −80° C. until use. For forskolin-stimulated cAMP accumulation assay, membranes were diluted in an assay buffer (50 mM Hepes, 10 mM MgCl2, 100 mM NaCl, 200 mM adenosine 5′-triphosphate, 10 mM GTP, 100 mM 3-isobutyl-1-methylxanthine, 20 mM forskolin, and 30 mM bovine serum albumin) and plated at […] of protein in each well. Membranes were treated with test compounds for 30 min at room temperature. The cAMP levels were determined as per the manufacturer's instructions (Cisbio cAMP HiRange assay).

T3 sequence (P35372 whole entry): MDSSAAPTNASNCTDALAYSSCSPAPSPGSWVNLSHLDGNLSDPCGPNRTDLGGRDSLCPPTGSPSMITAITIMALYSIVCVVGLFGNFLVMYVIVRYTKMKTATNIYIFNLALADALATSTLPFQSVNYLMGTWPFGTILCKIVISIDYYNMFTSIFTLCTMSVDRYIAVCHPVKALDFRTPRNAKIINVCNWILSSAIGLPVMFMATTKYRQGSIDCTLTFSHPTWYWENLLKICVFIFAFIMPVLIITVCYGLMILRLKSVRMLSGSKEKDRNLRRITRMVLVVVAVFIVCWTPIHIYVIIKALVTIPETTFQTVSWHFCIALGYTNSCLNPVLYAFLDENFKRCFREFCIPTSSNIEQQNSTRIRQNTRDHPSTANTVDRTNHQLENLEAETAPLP
T2 sequence (P34975 whole entry): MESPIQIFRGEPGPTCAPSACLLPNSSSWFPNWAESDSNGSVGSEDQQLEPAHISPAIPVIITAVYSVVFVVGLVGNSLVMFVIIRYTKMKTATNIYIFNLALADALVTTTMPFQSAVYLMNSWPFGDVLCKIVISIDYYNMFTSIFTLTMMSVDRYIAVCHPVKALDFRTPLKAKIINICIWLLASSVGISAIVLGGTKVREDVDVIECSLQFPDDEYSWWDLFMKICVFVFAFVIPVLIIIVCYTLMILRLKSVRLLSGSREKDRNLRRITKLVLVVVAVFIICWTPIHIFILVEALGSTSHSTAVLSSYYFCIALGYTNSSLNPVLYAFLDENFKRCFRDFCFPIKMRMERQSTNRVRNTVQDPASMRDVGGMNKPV
Chain of μ opioid receptor (P33535 whole entry): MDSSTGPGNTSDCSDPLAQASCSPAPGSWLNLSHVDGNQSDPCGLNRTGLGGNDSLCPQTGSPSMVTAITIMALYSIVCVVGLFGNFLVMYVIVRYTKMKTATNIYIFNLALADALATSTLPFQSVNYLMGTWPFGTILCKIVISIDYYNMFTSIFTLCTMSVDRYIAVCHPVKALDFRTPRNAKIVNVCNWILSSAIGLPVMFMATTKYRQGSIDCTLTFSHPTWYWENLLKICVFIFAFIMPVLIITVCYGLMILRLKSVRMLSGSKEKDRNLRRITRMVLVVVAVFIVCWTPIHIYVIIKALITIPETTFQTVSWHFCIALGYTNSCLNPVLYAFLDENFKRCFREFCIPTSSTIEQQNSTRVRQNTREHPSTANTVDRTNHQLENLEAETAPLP
T1 sequence (P33533 whole entry): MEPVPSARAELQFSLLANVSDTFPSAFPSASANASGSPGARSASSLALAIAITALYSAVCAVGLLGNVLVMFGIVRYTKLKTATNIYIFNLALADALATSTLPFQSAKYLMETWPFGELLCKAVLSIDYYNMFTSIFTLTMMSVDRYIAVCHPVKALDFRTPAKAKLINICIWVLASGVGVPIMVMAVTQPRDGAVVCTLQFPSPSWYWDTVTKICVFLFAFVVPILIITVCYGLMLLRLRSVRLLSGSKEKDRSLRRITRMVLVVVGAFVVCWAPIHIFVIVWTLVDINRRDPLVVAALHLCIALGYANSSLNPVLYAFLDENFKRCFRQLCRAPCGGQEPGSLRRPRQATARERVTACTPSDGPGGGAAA

Substance: 3-((1S,5R,9R)-9-(2-hydroxyethyl)-2-phenethyl-2-azabicyclo[3.3.1]nonan-5-yl)phenol [Compound 9]
- 3H DADLE δ activity in exploratory assay (δ opioid receptor): I (<50% activity at 100 nM concentration (displaced less than half of radioligand) in exploratory assay)
- 3H U69,593 κ activity in exploratory assay (κ opioid receptor; 100 nM concentration, rat tissue): I (<50% activity at 100 nM concentration (displaced less than half of radioligand) in exploratory assay)
- interaction with the kappa-receptor (in words) (κ opioid receptor; in vitro data): does not interact with the kappa-receptor
- Ki (μ opioid receptor): 5.43 ± 0.09 nM
- beta-arrestin recruitment (in words) (MOR [1]): do not
- EC50 (MOR [1]; Table 1, read-out: MOR Mediated β-arrestin Recruitment): > 25000 nM
- MOR cAMP Agonist (% Efficacy) (MOR [2]; Table 1): (64 ± 2%)
- EC50 (MOR [2]; Table 1, read-out: MOR cAMP Agonist Potency ± SEM): 4.7 ± 0.5 nM
- agonist character at the mu-receptor (in words) (MOR [2]; in vitro data): less potent partial agonist
